Results from patent US6534676B2, “Method to treat chronic heart failure and/or elevated cholesterol levels using 3,5-diiodothyropropionic acid and method to prepare same” (The Arizona Board of Regents on Behalf of the University of …, priority 2001, dated 2003).

Assays:
[1] = Heart failure patients: serum lipid levels; assay type: in vivo, human; details: for LDL-cholesterol: text baseline 107.3±42.8 mg/dL; for HDL Cholesterol / Triglyceride: serum; for HDL Cholesterol: baseline 32.8 ± 2.8; for Triglyceride: baseline 248.7 ± 40.4
Procedure: DITPA cross-reacted with antibodies for detection of T3, which consequently was not measured. Renal and hepatic function tests also were performed. Patients were randomly assigned in double-blind fashion to receive either DITPA at a dosage of 1.875 mg/kg daily or placebo in two or three divided doses. For the first four days of drug administration patients were monitored on a telemetry unit. Thereafter, weekly electrocardiograms were performed and patients were examined for changes in thyroid or cardiac status or evidence of drug toxicity. At the end of two weeks an echocardiogram was obtained. If there was no clinical evidence of progression of heart failure or development of an arrhythmia the dose of DITPA was increased to 3.75 mg/kg daily. After an additional two weeks of treatment with the higher dosage of the drug patients were readmitted to the hospital and the tests performed in the initial evaluation were repeated. Right heart catheterization was performed after the patient had been fasted overnight; no premedication was given. Pulmonary artery, pulmonary capillary wedge and right heart pressures were measured with a 7 Fr Swan-Ganz catheter introduced into the right femoral vein. Blood pressures were recorded with an automated arm cuff system. After an initial stabilization period of 20 to 30 minutes, the resting hemodynamic measurements were obtained. Thermodilution cardiac output measurements were averaged from five recordings after discarding the highest and lowest values. All blood tests were performed in the Clinical Pathology Laboratory at the Southern Arizona Veterans Administration Health Care System.

[2] = Heart failure patients: echocardiography; assay type: in vivo, human; details: for Shortening velocity: baseline 0.69 ± 0.15; for Ratio of early to late filling: baseline 1.10 ± 0.21; for LV diastolic dimension: baseline 6.84 ± 0.33; for Fractional shortening: baseline 17.0 ± 3.5; for Isovolumic relaxation time: baseline 92.2 ± 9.5; for LV mass: baseline 495.8 ± 45.9; for LV end-systolic dimension: baseline 5.72 ± 0.41
Procedure: DITPA cross-reacted with antibodies for detection of T3, which consequently was not measured. Renal and hepatic function tests also were performed. Patients were randomly assigned in double-blind fashion to receive either DITPA at a dosage of 1.875 mg/kg daily or placebo in two or three divided doses. For the first four days of drug administration patients were monitored on a telemetry unit. Thereafter, weekly electrocardiograms were performed and patients were examined for changes in thyroid or cardiac status or evidence of drug toxicity.
At the end of two weeks an echocardiogram was obtained. If there was no clinical evidence of progression of heart failure or development of an arrhythmia the dose of DITPA was increased to 3.75 mg/kg daily. After an additional two weeks of treatment with the higher dosage of the drug patients were readmitted to the hospital and the tests performed in the initial evaluation were repeated.
M-mode, two-dimensional, and Doppler echocardiograms were obtained with an ultrasonographic system equipped with a […] transducer (GE VingMed, Milwaukee, Wis.) according to the recommendation of the American Society of Echocardiography. Ejection fraction was measured by gated radionuclide myocardial imaging.

[3] = post-infarction rats, border zone around the infarct; cited from earlier work
[4] = tested on: single myocytes from infarcted rabbit hearts; details: cited from earlier work
[5] = tested on: nuclear T3 receptors of the c-erbA proto-oncogene family; details: background statement; cited from earlier work
[6] = post-infarction models, alone or with an angiotensin I-converting enzyme inhibitor; cited from earlier work
[7] = Dose-ranging study of DITPA in normal volunteers: clinical variables and tolerability; assay type: in vivo, human; details: for Weight: normal volunteers n=7, oral, baseline 84.2 ± 2.6; for Weight / Heart Rate / Diastolic Blood Pressure / Systolic Blood Pressure: mean ± SE; for Heart Rate: baseline 55.4 ± 2.9; for Diastolic Blood Pressure: baseline 77.1 ± 3.5; for Systolic Blood Pressure: baseline 121.3 ± 4.4
Procedure: In clinical trials discussed below wherein DITPA was orally administered to volunteers and patients, the DITPA was mixed under the supervision of a registered pharmacist with lactose and packed into gelatin capsules containing 50 mg of the active ingredient. Identical capsules were packed with lactose to serve as placebo medication.
A dose-ranging study was performed with seven (7) normal volunteers. Study participants comprised men between the ages of 18 and 65 years of age. Before participating in the study, a complete physical examination, electrocardiogram, and echocardiogram were obtained. A complete blood count (CBC), blood chemistries (including liver enzymes and lipids profile), and thyroid function studies (total T3, total T4, free T4, rT3, and thyrotropin) were measured.
On day 1, these normal volunteers were started on 1.875 mg/kg in two divided doses per day. This treatment regimen was continued for two weeks. At the end of the second week, the initial laboratory studies were repeated. The dose was then doubled to 3.75 mg/kg and the volunteers were treated for two additional weeks. At the end of this time physical examination and all laboratory variables again were measured.
Volunteer data were analyzed using Student's paired t-test. Baseline data in DITPA and placebo groups were compared by Student's unpaired t-test. Comparison of placebo and drug treated groups was made by repeated measures ANOVA (SPSS Version 9.5, SPSS Chicago, 11). If P values for drug-time interactions were significant a priori contrasts were performed of the drug-time interaction for two weeks versus baseline. When data were available only at baseline and four week, comparisons were made by difference scores. Baseline values for each participant were subtracted from values after four weeks of treatment and the differences between DITPA and placebo treatments then were compared. P values by two-tailed testing less than 0.05 were considered to be significant.
As noted above, seven normal volunteers received DITPA at two dosage levels for two and four weeks.

[8] = heart failure patients, after four weeks
[9] = heart failure patients, after two weeks
[10] = after 2 weeks (1.875 mg/kg daily)
[11] = after 4 weeks (3.75 mg/kg daily)
[12] = echocardiography, after 2 weeks (1.875 mg/kg daily)
[13] = echocardiography, after 4 weeks (3.75 mg/kg daily)
[14] = normal volunteers, after 2 weeks (1.875 mg/kg/day)
[15] = normal volunteers, after 4 weeks (3.75 mg/kg/day)

Q: Which cholesterol ([1]; heart failure patients n=9, serum, after 2 weeks (1.875 mg/kg daily), baseline 198.9 ± 19.7) does the source give for `O=C(O)CCc1cc(I)c(Oc2ccc(O)cc2)c(I)c1` [DITPA, 3,5-Diiodothyropropionic acid] here?
A: 160.6 ± 14.3^++ ng/dL

Q: What about the LDL-cholesterol ([1]; heart failure patients, after 4 weeks) of the same molecule?
A: 80.5 ± 13.7 mg/dL

Q: And the “decrease in LDL-cholesterol” value [1, 8]?
A: 25%

Q: And the decrease in cholesterol [1, 8]?
A: 24%

Q: And the “decrease in serum triglycerides” value ([1]; heart failure patients, after four weeks, P=0.005)?
A: 35%

Q: What about the cholesterol ([1]; heart failure patients, after four weeks, text baseline 185.8±46.9 mg/dL, P=0.013) of the same molecule?
A: 140.7 ± 16.2 mg/dL

Q: And the “average decrease in LDL-cholesterol” value [1, 9]?
A: 17%

Q: And the “average decrease in cholesterol” value [1, 9]?
A: 14%

Q: And the “decrease in serum triglycerides” value ([1]; heart failure patients, after two weeks, P<0.05)?
A: 11%

Q: What about the cholesterol ([1]; heart failure patients, after two weeks, text baseline 185.8±46.9 mg/dL, P<0.05) of the same molecule?
A: 160.6 ± 14.3 mg/dL

Q: What about the LDL-cholesterol ([1]; heart failure patients, at two weeks) of the same molecule?
A: 89.4 ± 12.7 mg/dL

Q: And the “HDL Cholesterol” value [1, 10]?
A: 30.6 ± 2.0 mg/dL

Q: And the Triglyceride [1, 10]?
A: 203.0 ± 30.4^++ mg/dL

Q: What about the “HDL Cholesterol” value [1, 11] of the same molecule?
A: 31.4 ± 3.1 mg/dL

Q: And the Triglyceride [1, 11]?
A: 143.7 ± 21.1 mg/dL

Q: What about the “patients in whom LDL-cholesterol decreased” value ([1]; treated for 4 weeks) of the same molecule?
A: 8 of 9

Q: And the Shortening velocity [2, 12]?
A: 0.55 ± 0.09 circ/sec

Q: And the “Ratio of early to late filling” value [2, 12]?
A: 0.89 ± 0.17

Q: What about the LV diastolic dimension [2, 12] of the same molecule?
A: 6.83 ± 0.35 cm

Q: What about the Fractional shortening [2, 12] of the same molecule?
A: 13.8 ± 2.4%

Q: And the Isovolumic relaxation time ([2]; echocardiography, after 2 weeks (1.875 mg/kg daily), contrast baseline to 2 weeks P = 0.051)?
A: 87.5 ± 9.2^++ msec

Q: And the LV mass [2, 12]?
A: 474.2 ± 38.2 g

Q: What about the Shortening velocity [2, 13] of the same molecule?
A: 0.57 ± 0.10 circ/sec

Q: And the “Ratio of early to late filling” value [2, 13]?
A: 1.16 ± 0.26

Q: And the LV end-systolic dimension [2, 13]?
A: 6.01 ± 0.33 cm

Q: And the LV diastolic dimension [2, 13]?
A: 6.96 ± 0.30 cm

Q: And the Fractional shortening [2, 13]?
A: 13.8 ± 2.5%

Q: What about the Isovolumic relaxation time ([2]; echocardiography, after 4 weeks (3.75 mg/kg daily), ANOVA P 0.045) of the same molecule?
A: 84.4 ± 8.5 ms

Q: What about the LV mass [2, 13] of the same molecule?
A: 477.9 ± 40.5 g

Q: What about the LV end-systolic dimension ([2]; heart failure patients n=9, echocardiography, after 2 weeks (1.875 mg/kg daily)) of the same molecule?
A: 5.87 ± 0.30 cm

Q: What about the capillary growth [3] of the same molecule?
A: increase in capillary growth

Q: What about the “calcium transport in the sarcoplasmic reticulum (SR)” value ([4]; post-infarction heart failure in rabbits) of the same molecule?
A: enhances calcium transport in the sarcoplasmic reticulum (SR)

Q: And the contraction-frequency relationship ([4]; single myocytes from infarcted rabbit hearts)?
A: prevents the flattened contraction-frequency relationship

Q: What about the “binding to nuclear T3 receptors” value [5] of the same molecule?
A: binds

Q: What about the “left ventricular (LV) performance” value [6] of the same molecule?
A: improve left ventricular (LV) performance

Q: And the echocardiographic parameters ([7]; normal volunteers)?
A: not changed significantly

Q: And the Weight ([7]; after 2 weeks (1.875 mg/kg/day))?
A: 83.5 ± 2.6 kg

Q: And the Weight ([7]; after 4 weeks (last 2 weeks 3.75 mg/kg/day))?
A: 83.6 ± 2.6 kg

Q: And the adverse effects ([7]; normal volunteers, 1.875 then 3.75 mg/kg, four weeks)?
A: no adverse effects were noted

Q: And the “Heart Rate” value [7, 14]?
A: 58.1 ± 3.2 beats/min

Q: What about the “Diastolic Blood Pressure” value [7, 14] of the same molecule?
A: 76.1 ± 2.9 mm Hg

Q: And the “Systolic Blood Pressure” value [7, 14]?
A: 122.0 ± 5.4 mm Hg

Q: What about the “Heart Rate” value [7, 15] of the same molecule?
A: 64.3 ± 3.4 beats/min

Q: What about the “Diastolic Blood Pressure” value [7, 15] of the same molecule?
A: 71.6 ± 3.8 mm Hg

Q: What about the “Systolic Blood Pressure” value [7, 15] of the same molecule?
A: 116.3 ± 6.1 mm Hg

Q: What about the “changes in blood pressure and pulse rate” value ([7]; normal volunteers, at either dose) of the same molecule?
A: no significant changes

Q: What about the tolerability ([7]; normal volunteers, both doses) of the same molecule?
A: well tolerated
